Experimental data reported in US20240148821A1, “PHARMACEUTICAL USE OF CYCLIC PEPTIDE COMPOUND” (CHUGAI SEIYAKU KABUSHIKI KAISHA, priority 2021, published 2024).
Numbered stars: 1 amine (or outer) side, 2 acyl side, 3 side chain; on linkers, the order of the positions; unused ones are H or OH. Bridge positions count the residues as written; N and C are the ends. Square brackets hold non-standard residues; d marks the D form. Peptide text beside a SMILES is read from it. * marks the point of attachment. hPhe(3-Cl-4-CF3) = N[C@@H](CCc1ccc(C(F)(F)F)c(Cl)c1)C(=O)O; X71 = O=C([C@H](CCc1ccc(C(F)(F)F)cc1F)N[*:1])[*:2]; hPhe(4-CF3) = N[C@@H](CCc1ccc(C(F)(F)F)cc1)C(=O)O; 3Oxa8azabicyclo(3.2.1)octane = C1CC2COCC1N2*; NMePhe(4-Cl) = CN[C@@H](Cc1ccc(Cl)cc1)C(=O)O; NMePhe(4-Me) = CN[C@@H](Cc1ccc(C)cc1)C(=O)O; X83 = Cc1ccc(CC[C@H](N[*:1])C(=O)[*:2])cc1; NMedβ3hAla = C[C@H](CC(=O)[*:2])N(C)[*:1]; NMeAla(cPent) = CN[C@@H](CC1CCCC1)C(=O)O; NMeGly(cPent) = CN[C@H](C(=O)O)C1CCCC1; X67 = O=C([C@@H]1CCC[C@H]1N[*:1])[*:2]; NMeGly(cBu) = CN[C@H](C(=O)O)C1CCC1; NMeCha = CN[C@@H](CC1CCCCC1)C(=O)O; NMehLeu = CN[C@@H](CCC(C)C)C(=O)O; NEtLeu = CCN[C@@H](CC(C)C)C(=O)O; NMeChg = CN[C@H](C(=O)O)C1CCCCC1; NMeF = CN[C@@H](Cc1ccccc1)C(=O)O; X138 = NCCOCCN(CC(=O)[*:2])[*:1]; N(CH2CH2)2CF2 = FC1(F)CCN(*)CC1; NMeD = CN[C@@H](CC(=O)O)C(=O)O; NMeL = CN[C@@H](CC(C)C)C(=O)O; dNMeAbu = CC[C@@H](NC)C(=O)O; NMeV = CN[C@H](C(=O)O)C(C)C; d(β3hA) = C[C@@H](N)CC(=O)O; NMeS = CN[C@@H](CO)C(=O)O; Morpholide = C1CN(*)CCO1; NMeA = CN[C@@H](C)C(=O)O; Piperidide = C1CCN(*)CC1; Pyrrolidide = C1CCN(*)C1; dNMeA = CN[C@H](C)C(=O)O; Ac5c = NC1(C(=O)O)CCCC1; Aze = O=C(O)[C@@H]1CCN1; Cyclopropyl = C1CC1*; NEtG = CCNCC(=O)O; Sar = CNCC(=O)O; Propyl = CCC*

molecular target: protein-protein interaction between Kras and SOS1 (biotin-tagged human Kras loaded with GDP, His-tagged human SOS1) (Homo sapiens (Human), UniProt P01116, G12D); experiment: Protein-protein interaction inhibition between Kras and SOS1 (KrasG12D-SOS PPI) using AlphaScreen; type: biochemical; conditions: AlphaScreen; biotin-tagged human Kras loaded with GDP, His-tagged human SOS1; read-out: KRAS G12D-SOS PPI IC50;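 further: kras produced in E. coli, Ni-coupled donor beads and streptavidin acceptor beads, excitation 680 nm with emission detected at 520–620 nm via singlet oxygen transfer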

| SMILES | IC50 [nM] |
| --- | --- |
| CCCOC[C@H]1C(=O)N(C)CC(=O)N[C@@H](CCc2ccc(C(F)(F)F)c(Cl)c2)C(=O)N2CCC[C@H]2C(=O)NC2(CCCC2)C(=O)N(C)[C@@H](C2CCCC2)C(=O)N(C)[C@H](C(=O)N2C3CCC2COC3)CC(=O)N(C)[C@@H](CCC(C)C)C(=O)N[C@@H]([C@@H](C)CC)C(=O)N(C)[C@@H](C)C(=O)N2CC[C@H]2C(=O)N1C [Compound 1154] ([NMehLeu]I[NMeA][Aze][NMeS](Propyl)[Sar][hPhe(3-Cl-4-CF3)]P[Ac5c][NMeGly(cPent)][NMeD]-{3Oxa8azabicyclo(3.2.1)octane}; lactam N-11) | 2.4 |
| CC[C@H](C)[C@@H]1NC(=O)[C@H](CC(C)C)N(C)C(=O)C[C@@H](C(=O)N2CCCCC2)N(C)C(=O)[C@H](C2CCCCC2)N(C)C(=O)C2(CCCC2)NC(=O)CN(CCOCCN)C(=O)[C@H](CCc2ccc(C(F)(F)F)c(Cl)c2)NC(=O)CN(C)C(=O)[C@H](CC2CCCCC2)N(C)C(=O)CN(C)C(=O)CN(C)C1=O [Compound 2185, (11S,17S,26S,29S,33S,36S)-9-[2-(2-aminoethoxy)ethyl]-11-[2-[3-chloro-4-(trifluoromethyl)phenyl]ethyl]-36-cyclohexyl-17-(cyclohexylmethyl)-29-isobutyl-15,18,21,24,30,34,37-heptamethyl-26-[(1S)-1-methylpropyl]-33-(piperidine-1-carbonyl)-6,9,12,15,18,21,24,27,30,34,37-undecazaspiro[4.33]octatriacontane-7,10,13,16,19,22,25,28,31,35,38-undecone] ([NMeL]I[Sar][Sar][NMeCha][Sar][hPhe(3-Cl-4-CF3)][X138][Ac5c][NMeChg][NMeD]-Piperidide; lactam N-11) | 2.4 |
| CC[C@H](C)[C@@H]1NC(=O)[C@H](COC2CC2)N(C)C(=O)C[C@@H](C(=O)N2CCCCC2)N(C)C(=O)[C@H](C(C)C)N(C)C(=O)C2(CCCC2)NC(=O)[C@@H]2CCCN2C(=O)[C@H](CCc2ccc(C(F)(F)F)c(Cl)c2)NC(=O)CN(C)C(=O)[C@H](CC2CCCCC2)N(C)C(=O)[C@@H]2CCN2C(=O)[C@H](C)N(C)C1=O [Compound 1764] ([NMeS](Cyclopropyl)I[NMeA][Aze][NMeCha][Sar][hPhe(3-Cl-4-CF3)]P[Ac5c][NMeV][NMeD]-Piperidide; lactam N-11) | 3.2 |
| CC[C@H](C)[C@@H]1NC(=O)[C@H](C)N(C)C(=O)C[C@@H](C(=O)N2CCCCC2)N(C)C(=O)[C@H](C(C)C)N(C)C(=O)C2(CCCC2)NC(=O)[C@@H]2CCCN2C(=O)[C@H](CCc2ccc(C)cc2)NC(=O)CN(C)C(=O)[C@H](CC2CCCCC2)N(C)C(=O)[C@@H]2CCN2C(=O)[C@H](C)N(C)C1=O [Compound 976] ([NMeA]I[NMeA][Aze][NMeCha][Sar][X83]P[Ac5c][NMeV][NMeD]-Piperidide; lactam N-11) | 180 |
| CCCOC[C@H]1C(=O)N(C)CC(=O)N[C@@H](CCc2ccc(C(F)(F)F)c(Cl)c2)C(=O)N2CCC[C@H]2C(=O)NC2(CCCC2)C(=O)N(C)[C@@H](C2CCCC2)C(=O)N(C)[C@H](C(=O)N2C3CCC2COC3)CC(=O)N(C)[C@@H](CC2CCCC2)C(=O)N[C@@H]([C@@H](C)CC)C(=O)N(C)[C@@H](C)C(=O)N2CC[C@H]2C(=O)N1C [Compound 1251] ([NMeAla(cPent)]I[NMeA][Aze][NMeS](Propyl)[Sar][hPhe(3-Cl-4-CF3)]P[Ac5c][NMeGly(cPent)][NMeD]-{3Oxa8azabicyclo(3.2.1)octane}; lactam N-11) | 2.6 |
| CC[C@H](C)[C@@H]1NC(=O)[C@H](CC(C)C)N(C)C(=O)C[C@@H](C)N(C)C(=O)[C@H](C(C)C)N(C)C(=O)C2(CCCC2)NC(=O)[C@H](CC(=O)N2CCC(F)(F)CC2)N(C)C(=O)[C@H](CCc2ccc(C(F)(F)F)c(Cl)c2)NC(=O)CN(C)C(=O)[C@H](CC2CCCCC2)N(C)C(=O)CN(C)C(=O)CN(C)C1=O [Compound 350] (cyclo([Ac5c][NMeV][NMedβ3hAla][NMeL]I[Sar][Sar][NMeCha][Sar][hPhe(3-Cl-4-CF3)][NMeD](N(CH2CH2)2CF2))) | 64 |
| CC[C@H](C)[C@@H]1NC(=O)[C@H](CC2CCCC2)N(C)C(=O)C[C@@H](C(=O)N2CCOCC2)N(C)C(=O)[C@H](C2CCCC2)N(C)C(=O)C2(CCCC2)NC(=O)[C@@H]2CCCN2C(=O)[C@H](CCc2ccc(C(F)(F)F)c(Cl)c2)NC(=O)CN(C)C(=O)[C@H](CC2CCCCC2)N(C)C(=O)[C@@H]2CCN2C(=O)[C@H](C)NC1=O [Compound 1176] ([NMeAla(cPent)]IA[Aze][NMeCha][Sar][hPhe(3-Cl-4-CF3)]P[Ac5c][NMeGly(cPent)][NMeD]-Morpholide; lactam N-11) | 0.8 |
| CC[C@H](C)[C@@H]1NC(=O)[C@H](CC(C)C)N(C)C(=O)C[C@@H](C(=O)N2CCCCC2)N(C)C(=O)[C@H](C2CCC2)N(C)C(=O)C2(CCCC2)NC(=O)[C@@H]2CCCN2C(=O)[C@H](CCc2ccc(C(F)(F)F)c(Cl)c2)NC(=O)CN(C)C(=O)[C@H](CC2CCCCC2)N(C)C(=O)[C@@H]2CCN2C(=O)[C@H](C)N(C)C1=O [Compound 672] ([NMeL]I[NMeA][Aze][NMeCha][Sar][hPhe(3-Cl-4-CF3)]P[Ac5c][NMeGly(cBu)][NMeD]-Piperidide; lactam N-11) | 2.5 |
| CC[C@H](C)[C@@H]1NC(=O)[C@H](CC(C)C)N(C)C(=O)C[C@@H](C)N(C)C(=O)[C@H](C(C)C)N(C)C(=O)C2(CCCC2)NC(=O)[C@@H]2CCCN2C(=O)[C@H](CCc2ccc(C(F)(F)F)c(Cl)c2)NC(=O)CN(C)C(=O)[C@H](CC2CCCC2)N(C)C(=O)CN(C)C(=O)CN(C)C1=O [Compound 88] (cyclo([Ac5c][NMeV][NMedβ3hAla][NMeL]I[Sar][Sar][NMeAla(cPent)][Sar][hPhe(3-Cl-4-CF3)]P)) | 18 |
| CC[C@H](C)[C@@H]1NC(=O)[C@H](C(C)C)N(C)C(=O)[C@@H]2CCC[C@H]2NC(=O)[C@H](CC(C)C)N(C)C(=O)C2(CCCC2)NC(=O)[C@H](CC(C)C)N(C)C(=O)[C@H](CCc2ccc(C(F)(F)F)cc2)NC(=O)CN(C)C(=O)[C@H](Cc2ccc(Cl)cc2)N(C)C(=O)CN(C)C(=O)CN(C)C1=O [Compound 996] (cyclo([Ac5c][NMeL][X67][NMeV]I[Sar][Sar][NMePhe(4-Cl)][Sar][hPhe(4-CF3)][NMeL])) | 90 |
| CC[C@H](C)[C@@H]1NC(=O)[C@H](CC(C)C)N(CC)C(=O)C[C@@H](C)NC(=O)[C@H](C2CCCC2)N(C)C(=O)C2(CCCC2)NC(=O)[C@@H]2CCCN2C(=O)[C@H](CCc2ccc(C(F)(F)F)c(Cl)c2)NC(=O)CN(C)C(=O)[C@H](Cc2ccc(C)cc2)N(C)C(=O)[C@@H]2CCN2C(=O)[C@H](C)N(C)C1=O [Compound 531] (cyclo([Ac5c][NMeGly(cPent)][d(β3hA)][NEtLeu]I[NMeA][Aze][NMePhe(4-Me)][Sar][hPhe(3-Cl-4-CF3)]P)) | 1.6 |
| CC[C@H](C)[C@@H]1NC(=O)[C@H](C)N(C)C(=O)C[C@@H](C)N(C)C(=O)[C@H](C(C)C)N(C)C(=O)C2(CCCC2)NC(=O)[C@@H]2CCCN2C(=O)[C@H](CCc2ccc(C(F)(F)F)c(Cl)c2)NC(=O)[C@@H](C)N(C)C(=O)[C@H](CC2CCCCC2)N(C)C(=O)[C@@H]2CCN2C(=O)[C@H](C)N(C)C1=O [Compound 1773] (cyclo([Ac5c][NMeV][NMedβ3hAla][NMeA]I[NMeA][Aze][NMeCha][dNMeA][hPhe(3-Cl-4-CF3)]P)) | 51 |
| CCCOC[C@H]1C(=O)N(CC)CC(=O)N[C@@H](CCc2ccc(C(F)(F)F)c(Cl)c2)C(=O)N2CCC[C@H]2C(=O)NC2(CCCC2)C(=O)N(C)[C@@H](C2CCCC2)C(=O)N(C)[C@H](C(=O)N2C3CCC2COC3)CC(=O)N(C)[C@@H](CC(C)C)C(=O)N[C@@H]([C@@H](C)CC)C(=O)N(C)[C@@H](C)C(=O)N2CC[C@H]2C(=O)N1C [Compound 1338] ([NMeL]I[NMeA][Aze][NMeS](Propyl)[NEtG][hPhe(3-Cl-4-CF3)]P[Ac5c][NMeGly(cPent)][NMeD]-{3Oxa8azabicyclo(3.2.1)octane}; lactam N-11) | 17 |
| CC[C@@H]1C(=O)NC2(CCCC2)C(=O)N(C)[C@@H](C2CCCC2)C(=O)N(C)[C@H](C(=O)N2CCCCC2)CC(=O)N(C)[C@@H](CC(C)C)C(=O)N[C@@H]([C@@H](C)CC)C(=O)N(C)CC(=O)N(C)CC(=O)N(C)[C@@H](CC2CCCCC2)C(=O)N(C)CC(=O)N[C@@H](CCc2ccc(C(F)(F)F)c(Cl)c2)C(=O)N1C [Compound 1439] ([NMeL]I[Sar][Sar][NMeCha][Sar][hPhe(3-Cl-4-CF3)][dNMeAbu][Ac5c][NMeGly(cPent)][NMeD]-Piperidide; lactam N-11) | 3.7 |
| CC[C@H](C)[C@@H]1NC(=O)[C@H](C)N(C)C(=O)C[C@@H](C(=O)N2CCCC2)NC(=O)[C@H](CC(C)C)N(C)C(=O)[C@H](Cc2ccccc2)N(C)C(=O)[C@@H]2CCCN2C(=O)[C@H](CCc2ccc(C(F)(F)F)cc2F)NC(=O)CN(C)C(=O)[C@H](Cc2ccc(Cl)cc2)N(C)C(=O)CN(C)C(=O)CN(C)C1=O [Compound 2096, (3S,9S,18S,21S,25S,28S,31S,34S)-31-benzyl-9-[(4-chlorophenyl)methyl]-3-[2-[2-fluoro-4-(trifluoromethyl)phenyl]ethyl]-28-isobutyl-7,10,13,16,21,22,29,32-octamethyl-18-[(1S)-1-methylpropyl]-25-(pyrrolidine-1-carbonyl)-1,4,7,10,13,16,19,22,26,29,32-undecazabicyclo[32.3.0]heptatriacontane-2,5,8,11,14,17,20,23,27,30,33-undecone] ([NMeA]I[Sar][Sar][NMePhe(4-Cl)][Sar][X71]P[NMeF][NMeL]D-Pyrrolidide; lactam N-11) | 19 |
| CC[C@H](C)[C@@H]1NC(=O)[C@H](CC(C)C)N(CC)C(=O)C[C@@H](C(=O)N2CCCCC2)N(C)C(=O)[C@H](C(C)C)N(C)C(=O)C2(CCCC2)NC(=O)[C@@H]2CCCN2C(=O)[C@H](CCc2ccc(C(F)(F)F)c(Cl)c2)NC(=O)CN(C)C(=O)[C@H](CC2CCCCC2)N(C)C(=O)[C@@H]2CCN2C(=O)[C@H](C)N(C)C1=O [Compound 667] ([NEtLeu]I[NMeA][Aze][NMeCha][Sar][hPhe(3-Cl-4-CF3)]P[Ac5c][NMeV][NMeD]-Piperidide; lactam N-11) | 5.1 |
